These results are taken from patent publication US12162890B2 (Novartis AG, priority 2015, dated 2024).

In the experiment the target is HEK293 cells with stable expression of the GRIN1 gene and tetracycline-inducible expression of the GRIN2B gene (NMDA receptor, NR2B) (Homo sapiens, UniProt Q13224). The experiment in a line: Fluo-8 Ca2+ flux assay: reversal of Ro 25-6981-mediated suppression of the Ca2+ response to co-agonist (glutamate/glycine). Note: test concentration or dose not given here. Format: cell-based. Particulars: reversal of the Ro 25-6981 suppression of the Ca2+ response to co-agonist (glutamate/glycine). (In general: A change in cytosolic calcium serves as a functional read-out for many receptors and channels.)
Sequence of HEK293 cells with stable expression of the GRIN1 gene and tetracycline-inducible expression of the GRIN2B gene (NMDA receptor, NR2B) (Q13224 27-1484, other chains not shown): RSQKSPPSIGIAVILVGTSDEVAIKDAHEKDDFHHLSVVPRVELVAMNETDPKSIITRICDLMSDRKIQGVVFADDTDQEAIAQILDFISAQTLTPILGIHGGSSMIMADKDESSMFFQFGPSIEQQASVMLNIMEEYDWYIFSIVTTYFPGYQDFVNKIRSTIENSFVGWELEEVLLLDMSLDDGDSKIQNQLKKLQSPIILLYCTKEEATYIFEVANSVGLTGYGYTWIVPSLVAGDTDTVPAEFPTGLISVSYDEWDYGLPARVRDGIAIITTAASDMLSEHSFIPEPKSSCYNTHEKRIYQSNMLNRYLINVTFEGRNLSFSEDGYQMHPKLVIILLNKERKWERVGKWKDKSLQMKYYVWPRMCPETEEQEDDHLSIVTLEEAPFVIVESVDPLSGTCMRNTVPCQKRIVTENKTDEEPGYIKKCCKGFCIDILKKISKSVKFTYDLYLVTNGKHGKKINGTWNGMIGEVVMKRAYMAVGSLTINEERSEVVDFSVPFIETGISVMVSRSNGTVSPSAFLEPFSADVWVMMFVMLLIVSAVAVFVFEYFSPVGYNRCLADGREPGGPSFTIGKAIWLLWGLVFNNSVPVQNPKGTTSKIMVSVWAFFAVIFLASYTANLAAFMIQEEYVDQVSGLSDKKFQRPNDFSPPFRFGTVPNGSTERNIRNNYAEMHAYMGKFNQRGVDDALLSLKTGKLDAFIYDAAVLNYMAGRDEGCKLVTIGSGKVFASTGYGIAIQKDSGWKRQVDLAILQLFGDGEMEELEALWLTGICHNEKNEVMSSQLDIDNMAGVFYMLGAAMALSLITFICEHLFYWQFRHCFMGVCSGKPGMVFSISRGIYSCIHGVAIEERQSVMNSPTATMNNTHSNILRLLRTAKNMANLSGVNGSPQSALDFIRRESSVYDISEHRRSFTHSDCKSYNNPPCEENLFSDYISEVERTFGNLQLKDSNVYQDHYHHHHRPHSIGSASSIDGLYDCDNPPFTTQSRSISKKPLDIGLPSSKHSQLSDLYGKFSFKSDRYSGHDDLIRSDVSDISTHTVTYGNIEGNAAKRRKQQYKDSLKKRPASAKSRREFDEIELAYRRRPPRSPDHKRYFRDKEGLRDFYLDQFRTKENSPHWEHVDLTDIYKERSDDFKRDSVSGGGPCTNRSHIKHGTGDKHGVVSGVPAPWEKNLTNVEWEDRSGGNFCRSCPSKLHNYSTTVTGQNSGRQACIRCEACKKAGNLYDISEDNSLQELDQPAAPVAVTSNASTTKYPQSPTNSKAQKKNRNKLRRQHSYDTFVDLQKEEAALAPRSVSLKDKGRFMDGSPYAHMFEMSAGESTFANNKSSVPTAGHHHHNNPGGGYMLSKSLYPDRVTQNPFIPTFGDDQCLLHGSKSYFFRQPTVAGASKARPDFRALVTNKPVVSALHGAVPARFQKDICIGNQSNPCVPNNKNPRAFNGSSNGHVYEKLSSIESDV

With `O=C(Cn1cnc2[nH]cc(-c3ccc(Cl)c(C(F)(F)F)c3)c2c1=O)N1CCC(F)C1` (stereo not shown) [Example 177, 5-(4-chloro-3-(trifluoromethyl)phenyl)-3-(2-(3-fluoropyrrolidin-1-yl)-2-oxoethyl)-3H-pyrrolo[2,3-d]pyrimidin-4(7H)-one], the “Response Recovered (%)” value amounted to 85%.

Regarding `O=C(Cn1ccn2ncc(-c3ccc(Cl)c(Cl)c3)c2c1=O)N1CCCC1` [Example 326, 3-(3,4-dichlorophenyl)-5-(2-oxo-2-(pyrrolidin-1-yl)ethyl)pyrazolo[1,5-a]pyrazin-4(5H)-one], the “Response Recovered (%)” value is given as 29%.

Regarding `O=C(Cn1ccc2scc(-c3ccc(F)c(Cl)c3)c2c1=O)N1CC[C@H](F)C1` [Example 40, (S)-3-(3-chloro-4-fluorophenyl)-5-(2-(3-fluoropyrrolidin-1-yl)-2-oxoethyl)thieno[3,2-c]pyridin-4(5H)-one], the “Response Recovered (%)” value stood at 46%.

In the case of `CC1(F)CN(C(=O)Cn2cnn3cnc(-c4ccc(Cl)c(Cl)c4)c3c2=O)C1` [Example 425, 5-(3,4-dichlorophenyl)-3-(2-(3-fluoro-3-methylazetidin-1-yl)-2-oxoethyl)imidazo[5,1-f][1,2,4]triazin-4(3H)-one], the “Response Recovered (%)” value turned out to be 27%.

Turning to `Cn1cc(-c2ccc(Cl)cc2)c2c(=O)n(CC(=O)N3CC(F)(F)C3)cnc21` [Example 155, 5-(4-chlorophenyl)-3-(2-(3,3-difluoroazetidin-1-yl)-2-oxoethyl)-7-methyl-3H-pyrrolo[2,3-d]pyrimidin-4(7H)-one], the “Response Recovered (%)” value worked out at 24%.

On to `Cc1cc(-c2nc(C3CC3)n3ccn(CC(=O)N4CC(C)(F)C4)c(=O)c23)ccc1F` [Example 442, 3-cyclopropyl-7-(2-(3-fluoro-3-methylazetidin-1-yl)-2-oxoethyl)-1-(4-fluoro-3-methylphenyl)imidazo[1,5-a]pyrazin-8(7H)-one], for which the “Response Recovered (%)” value is on record as 65%.

`N#Cc1ncc(-c2csc3ccn(CC(=O)N4CC(F)(CF)C4)c(=O)c23)cc1Cl` [Example 138, 3-chloro-5-(5-(2-(3-fluoro-3-(fluoromethyl)azetidin-1-yl)-2-oxoethyl)-4-oxo-4,5-dihydrothieno[3,2-c]pyridin-3-yl)picolinonitrile]: the “Response Recovered (%)” value came to 10%.

Turning to `CCn1cc(-c2ccc(Cl)c(Cl)c2)c2c(=O)n(CC(=O)N3CCC(F)C3)ccc21` (stereo not shown) [Example 272, 3-(3,4-dichlorophenyl)-1-ethyl-5-(2-(3-fluoropyrrolidin-1-yl)-2-oxoethyl)-1H-pyrrolo[3,2-c]pyridin-4(5H)-one], the “Response Recovered (%)” value is given as 33%.

Consider `O=C(Cn1ccc2scc(-c3ccc(Cl)c(Cl)c3)c2c1=O)N1CC(F)(C2CC2)C1` [Example 49, 5-(2-(3-cyclopropyl-3-fluoroazetidin-1-yl)-2-oxoethyl)-3-(3,4-dichlorophenyl)thien-o[3,2-c]pyridin-4(5H)-one], for which the “Response Recovered (%)” value came out at 26%.

On to `O=C(Cn1ccc2ncc(-c3ccc(Cl)c(Cl)c3)n2c1=O)N1CCC(F)C1` (stereo not shown) [Example 450, 3-(3,4-dichlorophenyl)-6-(2-(3-fluoropyrrolidin-1-yl)-2-oxoethyl)imidazo[1,2-c]pyrimidin-5(6H)-one], for which the “Response Recovered (%)” value is 33%.

Turning to `O=C(Cn1nnc2scc(-c3ccc(Cl)c(C(F)(F)F)c3)c2c1=O)N1CCCC1C(F)(F)F` (stereo not shown) [Example 334, 5-(4-chloro-3-(trifluoromethyl)phenyl)-3-(2-oxo-2-(2-(trifluoromethyl)pyrrolidin-1-yl)ethyl)thieno[2,3-d][1,2,3]triazin-4(3H)-one], the “Response Recovered (%)” value stood at 2%.

Take `O=C(Cn1cnc2cccc(-c3ccc(Cl)cc3)c2c1=O)N1CCCC1F` (stereo not shown) [Example 298, 5-(4-chlorophenyl)-3-(2-(2-fluoropyrrolidin-1-yl)-2-oxoethyl)quinazolin-4(3H)-one]: the “Response Recovered (%)” value is 9%.

Turning to `O=C(Cn1cc(CO)c2scc(-c3ccc(Cl)c(Cl)c3)c2c1=O)N1CCC(F)C1` (stereo not shown) [Example 131, 3-(3,4-dichlorophenyl)-5-(2-(3-fluoropyrrolidin-1-yl)-2-oxoethyl)-7-(hydroxymethyl) thieno[3,2-c]pyridin-4(5H)-one], the “Response Recovered (%)” value is 72%.

`O=C(Cn1ccc2scc(-c3ccc(F)c(Cl)c3)c2c1=O)N1CCC1` [Example 46, 5-(2-(azetidin-1-yl)-2-oxoethyl)-3-(3-chloro-4-fluorophenyl)thieno[3,2-c]pyridin-4(5H)-one]: the “Response Recovered (%)” value came out at 26%.

As to `CCC1(F)CN(C(=O)Cn2ccc3scc(-c4cnc(F)c(F)c4)c3c2=O)C1` [Example 143, 3-(5,6-difluoropyridin-3-yl)-5-(2-(3-ethyl-3-fluoroazetidin-1-yl)-2-oxoethyl)thieno[3,2-c]pyridin-4(5H)-one], the “Response Recovered (%)” value is on record as 15%.

For the compound `O=C(Cn1cnc2csc(-c3ccc(C(F)(F)F)cc3)c2c1=O)N1CCCC1C(F)(F)F` (stereo not shown) [Example 357, 3-(2-oxo-2-(2-(trifluoromethyl)pyrrolidin-1-yl)ethyl)-5-(4-(trifluoromethyl)phenyl)thieno[3,4-d]pyrimidin-4(3H)-one], the “Response Recovered (%)” value is reported as 2%.

Take `O=C(Cn1ccc2[nH]cc(-c3cnc(Cl)c(C(F)(F)F)c3)c2c1=O)N1CC(F)C(F)C1` (stereo not shown) [Example 221, 3-(6-chloro-5-(trifluoromethyl)pyridin-3-yl)-5-(2-(3,4-difluoropyrrolidin-1-yl)-2-oxoethyl)-1H-pyrrolo[3,2-c]pyridin-4(5H)-one]: the “Response Recovered (%)” value came to 43%.

`O=C(Cn1ccc2[nH]cc(-c3ccc(Cl)c(C(F)(F)F)c3)c2c1=O)N1CCC(F)C1` (stereo not shown) [Example 203, 3-(4-chloro-3-(trifluoromethyl)phenyl)-5-(2-(3-fluoropyrrolidin-1-yl)-2-oxoethyl)-1H-pyrrolo[3,2-c]pyridin-4(5H)-one]: the “Response Recovered (%)” value is reported as 42%.

Regarding `CC1(F)CN(C(=O)Cn2cnn3cnc(-c4ccc(F)c(Cl)c4)c3c2=O)C1` [Example 424, 5-(3-chloro-4-fluorophenyl)-3-(2-(3-fluoro-3-methylazetidin-1-yl)-2-oxoethyl)imidazo[5,1-f][1,2,4]triazin-4(3H)-one], the “Response Recovered (%)” value turned out to be 0.55%.

For the compound `O=C(Cn1ccn2ccc(-c3ccc(F)c(C(F)(F)F)c3)c2c1=O)N1CCC(F)C1` (stereo not shown) [Example 390, 8-(4-fluoro-3-(trifluoromethyl)phenyl)-2-(2-(3-fluoropyrrolidin-1-yl)-2-oxoethyl)pyrrolo[1,2-a]pyrazin-1(2H)-one], the “Response Recovered (%)” value came to 51%.

As for `N=C(N)c1cn(CC(=O)N2CCCC2)c(=O)c2c(-c3ccc(F)c(C(F)(F)F)c3)csc12` [Example 113, 3-(4-fluoro-3-(trifluoromethyl)phenyl)-4-oxo-5-(2-oxo-2-(pyrrolidin-1-yl)ethyl)-4,5-dihydrothieno[3,2-c]pyridine-7-carboximidamide], the “Response Recovered (%)” value is reported as 47%.

As to `O=C(Cn1cnc2csc(-c3ccc(Cl)cc3)c2c1=O)N1CCCC1C(F)(F)F` (stereo not shown) [Example 355, 5-(4-chlorophenyl)-3-(2-oxo-2-(2-(trifluoromethyl)pyrrolidin-1-yl)ethyl)thieno[3,4-d]pyrimidin-4(3H)-one], the “Response Recovered (%)” value is on record as 10%.

Regarding `O=C(Cn1ccc2c(c(-c3ccc(F)c(C(F)(F)F)c3)cn2-c2ncccn2)c1=O)N1CCC(F)C1` (stereo not shown) [Example 243, 3-(4-fluoro-3-(trifluoromethyl)phenyl)-5-(2-(3-fluoropyrrolidin-1-yl)-2-oxoethyl)-1-(pyrimidin-2-yl)-1H-pyrrolo[3,2-c]pyridin-4(5H)-one], the “Response Recovered (%)” value was 96%.

As to `CC1(F)CN(C(=O)Cn2ccc3scc(-c4ccc(Cl)c(Cl)c4)c3c2=O)C1` [Example 42, 3-(3,4-dichlorophenyl)-5-(2-(3-fluoro-3-methylazetidin-1-yl)-2-oxoethyl)thieno[3,2-c]pyridin-4(5H)-one], the “Response Recovered (%)” value is recorded as 150%.

Regarding `O=C(Cn1ccc2c(c(-c3ccc(Cl)c(Cl)c3)cn2-c2ccccn2)c1=O)N1CCC(F)C1` (stereo not shown) [Example 229, 3-(3,4-dichlorophenyl)-5-(2-(3-fluoropyrrolidin-1-yl)-2-oxoethyl)-1-(pyridin-2-yl)-1H-pyrrolo[3,2-c]pyridin-4(5H)-one], the “Response Recovered (%)” value came out at 78%.

`Cc1cn(CC(=O)N2CCC(F)C2)c(=O)c2c(-c3ccc(F)c(Cl)c3)cc(Br)n12` (stereo not shown) [Example 415, 6-bromo-8-(3-chloro-4-fluorophenyl)-2-(2-(3-fluoropyrrolidin-1-yl)-2-oxoethyl)-4-methylpyrrolo[1,2-a]pyrazin-1(2H)-one]: the “Response Recovered (%)” value worked out at 52%.

As to `O=C(Cn1ccc2cccc(-c3ccc(F)c(Cl)c3)c2c1=O)N1CC(F)(F)C1` [Example 309, 8-(3-chloro-4-fluorophenyl)-2-(2-(3,3-difluoroazetidin-1-yl)-2-oxoethyl)isoquinolin-1(2H)-one], the “Response Recovered (%)” value amounted to 41%.

Turning to `O=C(Cn1ccc2scc(-c3ccc(Cl)c(F)c3)c2c1=O)N1CCC(F)C1` (stereo not shown) [Example 7, 3-(4-chloro-3-fluorophenyl)-5-(2-(3-fluoropyrrolidin-1-yl)-2-oxoethyl)thieno[3,2-c]pyridin-4(5H)-one], the “Response Recovered (%)” value was 49%.

For the compound `C[Si](C)(C)CCOCn1cc(-c2ccc(Cl)c(C(F)(F)F)c2)c2c(=O)n(CC(=O)N3CC(F)(F)C3)ccc21` [Example 200, 3-(4-chloro-3-(trifluoromethyl)phenyl)-5-(2-(3,3-difluoroazetidin-1-yl)-2-oxoethyl)-1-((2-(trimethylsilyl)ethoxy)methyl)-1H-pyrrolo[3,2-c]pyridin-4(5H)-one], the “Response Recovered (%)” value was determined as 18%.

Take `CC1(F)CN(C(=O)Cn2ccn3c(C4CC4)nc(-c4cnc(F)c(Cl)c4)c3c2=O)C1` [Example 441, 1-(5-chloro-6-fluoropyridin-3-yl)-3-cyclopropyl-7-(2-(3-fluoro-3-methylazetidin-1-yl)-2-oxoethyl)imidazo[1,5-a]pyrazin-8(7H)-one]: the “Response Recovered (%)” value is on record as 46%.

With `Cn1cc(-c2ccc(Cl)c(F)c2)c2c(=O)n(CC(=O)N3CCCC3)cnc21` [Example 165, 5-(4-chloro-3-fluorophenyl)-7-methyl-3-(2-oxo-2-(pyrrolidin-1-yl)ethyl)-3H-pyrrolo[2,3-d]pyrimidin-4(7H)-one], the “Response Recovered (%)” value is 25%.
